In general, EC50 refers to the concentration giving half of the maximal effect.

Results on five molecules are retold here after BindingDB's records for doi:10.1021/jm00059a006 (Ura Cnrs 1309, 1993).

This assay can be described thus: Effective concentration that reduces HIV-induced cytopathic effect by 50% was determined by reverse transcriptase (RT) assay. For orientation: Damage to the host cells serves as the signal in cytopathic effect assays.
In turn, `Cc1cn([C@H]2C[C@H](N=[N+]=[N-])[C@@H](CO)O2)c(=O)[nH]c1=O` [1-((2R,4S,5S)-4-Azido-5-hydroxymethyl-tetrahydro-furan-2-yl)-5-methyl-1H-pyrimidine-2,4-dione] came in with an EC50 of 10 nM.

The molecule `Cc1cn([C@H]2C=C[C@@H](CO)O2)c(=O)[nH]c1=O` [2',3'-didehydro-3'-deoxythymidine] registered a 50% effective concentration (EC50) of 50 nM.

The molecule `CCCCCCCCCCCCCCCC(=O)OCC1C=CC(n2cc(C)c(=O)[nH]c2=O)O1` (stereo not given) [Hexadecanoic acid 5-(5-methyl-2,4-dioxo-3,4-dihydro-2H-pyrimidin-1-yl)-2,5-dihydro-furan-2-ylmethyl ester] showed a 50% effective concentration (EC50) of 80 nM.

On to `Cc1cn(C2C=CC(COP(=O)(O)OCC3C=CC(n4cc(C)c(=O)[nH]c4=O)O3)O2)c(=O)[nH]c1=O` (stereo not given) [Phosphoric acid bis-[5-(5-methyl-2,4-dioxo-3,4-dihydro-2H-pyrimidin-1-yl)-2,5-dihydro-furan-2-ylmethyl] ester], for which the 50% effective concentration (EC50) was found to be 50 nM.

Turning to `CCCCCCCCCCCCCCCCOP(=O)(O)OCC1C=CC(n2cc(C)c(=O)[nH]c2=O)O1` (stereo not given) [Phosphoric acid hexadecyl ester 5-(5-methyl-2,4-dioxo-3,4-dihydro-2H-pyrimidin-1-yl)-2,5-dihydro-furan-2-ylmethyl ester], the concentration for a half-maximal effect (EC50) came to 200 nM.
